Target: T1, renin (Homo sapiens, UniProt P00797)
T1 sequence (P00797 67-406): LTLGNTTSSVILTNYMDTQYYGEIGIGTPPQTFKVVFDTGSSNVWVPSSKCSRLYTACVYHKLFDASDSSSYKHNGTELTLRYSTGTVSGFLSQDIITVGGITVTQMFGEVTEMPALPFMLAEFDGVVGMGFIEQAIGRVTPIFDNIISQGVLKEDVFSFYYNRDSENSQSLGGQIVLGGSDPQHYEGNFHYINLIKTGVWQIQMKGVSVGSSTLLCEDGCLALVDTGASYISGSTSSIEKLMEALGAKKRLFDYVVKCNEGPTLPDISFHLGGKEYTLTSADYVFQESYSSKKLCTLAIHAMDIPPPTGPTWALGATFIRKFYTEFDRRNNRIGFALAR
Experiment: renin inhibitory potency
Type: biochemical
Conditions: 2S,5S product compared with the 2R,5R isomer separated by HPLC
Excerpt: The activity of the compounds of the present invention as inhibitors of the angiotensinogen-cleaving activity of renin may be determined by studying (1) their ability to inhibit the angiotensinogen-cleaving activity of renin in vitro and (2) their ability to antagonize the exogenous renin-induced pressor response in vivo.

renin inhibitory potency: more active
Structure (SMILES): CCCC[C@H](NC(=O)[C@H](Cc1ccccc1)NC(=O)N1CCOCC1)C(=O)N[C@@H](CC1CCCCC1)C(=O)C(F)(F)[C@@H](CC(C)C)C(=O)OCC [Example 10, Ethyl (2S,5S)-2-isobutyl-3,3-difluoro-4-keto-5-N-(N-[morpholinocarbonyl-L-phenylalanyl]-L-norleucyl)-amino-6-cyclohexylhexanoate]

Source: patent US4855303A, “Fluorine containing renin inhibitors” (Pfizer Inc., priority 1988, dated 1989)
